Measurements: patent publication US20140288185A1, “NICOTINIC RECEPTOR NON-COMPETITIVE MODULATORS” (Targacept, Inc., priority 2011, published 2014)
Read-outs that look alike come from different tables or passages of the source.

How the values were obtained:
[1] = molecular target: Nicotinic, human α4β2 (Homo sapiens, UniProt P17787+P43681); assay: Competition binding, human α4β2 nicotinic receptor ([3H]nicotine)
Description: (§1) SH-EP1-human α4β2 (Eaton et al., 2003), cell lines were obtained from Dr. Ron Lukas (Barrow Neurological Institute). Cells were maintained in proliferative growth phase in Dulbecco's modified Eagle's medium (Invitrogen, Carlsbad, Calif.) with 10% horse serum (Invitrogen), 5% fetal bovine serum (HyClone, Logan Utah), 1 mM sodium pyruvate, 4 mM L-glutamine. For maintenance of stable transfectants, the α4β2 cell media was supplemented with 0.25 mg/mL zeocin and 0.13 mg/mL hygromycin B.
(§2) Cells were harvested in ice-cold PBS, pH 7.4, then homogenized with a Polytron (Kinematica GmbH, Switzerland). Homogenates were centrifuged at 40,000 g for 20 minutes (4° C.). The pellet was re-suspended in PBS and protein concentration determined using the Pierce BCA Protein Assay kit (Pierce Biotechnology, Rockford, Ill.).
(§3) Binding to nicotinic receptors was assayed on membranes using standard methods adapted from published procedures (Lippiello and Fernandes 1986; Davies et al., 1999). In brief, membranes were reconstituted from frozen stocks and incubated for 2 h on ice in 150 μl assay buffer (50 mM Tris, 154 mM NaCl, pH 7.4) in the presence of competitor compound (0.001 nM to 100 μM) and radioligand. [^3H]-nicotine (L-(−)-[N-methyl-^3H]-nicotine, 69.5 Ci/mmol, Perkin-Elmer Life Sciences, Waltham, Mass.) was used for human α4β2 binding studies. [^3H]-epibatidine (52 Ci/mmol, Perkin-Elmer Life Sciences) was used for binding studies at the other nicotinic receptor subtypes. Incubation was terminated by rapid filtration on a multimanifold tissue harvester (Brandel, Gaithersburg, Md.) using GF/B filters presoaked in 0.33% polyethyleneimine (w/v) to reduce non-specific binding. Filters were washed 3 times with ice-cold assay buffer and the retained radioactivity was determined by liquid scintillation counting.
(§4) Binding data were expressed as percent total control binding. Replicates for each point were averaged and plotted against the log of drug concentration. The IC50 (concentration of the compound that produces 50% inhibition of binding) was determined by least squares non-linear regression using GraphPad Prism software (GraphPAD, San Diego, Calif.). Ki was calculated using the Cheng-Prusoff equation (Cheng and Prusoff, 1973).

[2] = molecular target: T1, Nicotinic, human α3β4α5 (Homo sapiens, UniProt P30532+P30926+P32297); assay: Competition binding, human ganglion nicotinic receptor (SH-SY5Y membranes); conditions: SH-SY5Y cell membranes (α3β4α5), [3H]epibatidine 1 nM; read-out: Human Ganglion Ki
T1 construct: endogenous in cells; host or cells: SH-SY5Y human neuroblastoma cells
Description: as §2, §3, §4

[3] = molecular target: human α4β2 (HS) (Homo sapiens, UniProt P17787+P43681); assay: Calcium flux inhibition, SH-EP1-human α4β2 treated at 29° C. (HS); assay type: cell-based
Description: as §1
(§5) Forty-eight hours prior to each experiment, cells were plated in 96 well black-walled, clear bottom plates (Corning, Corning, N.Y.) at 60-100,000 cells/well. On the day of the experiment, growth medium was gently removed, 200 μL 1×FLIPR Calcium 4 Assay reagent (Molecular Devices, Sunnyvale, Calif.) in assay buffer (20 mM HEPES, 7 mM TRIS base, 4 mM CaCl2, 5 mM D-glucose, 0.8 mM MgSO4, 5 mM KCl, 0.8 mM MgCl2, 120 mM N-methyl D-glucamine, 20 mM NaCl, pH 7.4 for SH-EP1-human α4β2 cells or 10 mM HEPES, 2.5 mM CaCl2, 5.6 mM D-glucose, 0.8 mM MgSO4, 5.3 mM KCl, 138 mM NaCl, pH 7.4 with TRIS-base for all other cell lines) was added to each well and plates were incubated at 37° C. for 1 hour (29° C. for the 29° C.-treated SH-EP1-human α4β2 cells). For inhibition studies, competitor compound (10 pM-10 μM) was added at the time of dye addition. The plates were removed from the incubator and allowed to equilibrate to room temperature. Plates were transferred to a FLIPR Tetra fluorometric imaging plate reader (Molecular Devices) for addition of compound and monitoring of fluorescence (excitation 485 nm, emission 525 nm). The amount of calcium flux was compared to both a positive (nicotine) and negative control (buffer alone). The positive control was defined as 100% response and the results of the test compounds were expressed as a percentage of the positive control. For inhibition studies, the agonist nicotine was used at concentrations of 1 μM for SH-EP1-human α4β2 treated at 29° C. (HS), 10 μM for SH-EP1-human α4β2 maintained at 37° C. (LS), and 20 μM for SH-SY5Y cells or CHO_human α3β4.

[4] = molecular target: human α4β2 (LS) (Homo sapiens, UniProt P17787+P43681); assay: Calcium flux inhibition, SH-EP1-human α4β2 maintained at 37° C. (LS); assay type: cell-based; conditions: for Emax: read-out: Human α4β2 Ca Flux Imax [37C/HS]
Description: as §1
as §5, with “For inhibition studies, the agonist nicotine was used at concentrations of 1 μM for SH-EP1-human α4β2 treated at 29° C. (HS), 10 μM for SH-EP1-human α4β2 maintained at 37° C.” left out

[5] = molecular target: T2, Human Ganglion (SH-SY5Y cells) (Homo sapiens, UniProt P30532+P30926+P32297); assay: Calcium flux inhibition, human ganglion (SH-SY5Y cells); assay type: cell-based
T2 construct: endogenous in cells; host or cells: SH-SY5Y human neuroblastoma cells
Description: as §5

[6] = molecular target: T3, Nicotinic, human α3β4 (Homo sapiens, UniProt P30926+P32297); assay: Competition binding, human α3β4 nicotinic receptor (CHO human α3β4 membranes)
T3 construct: host or cells: CHO
Description: (§6) CHO-human α3β4 cells (obtained from ChanTest, Cleveland, Ohio, catalog #CT6021) were maintained in proliferative growth phase in Ham's F12 (VWR) with 10% fetal bovine serum (Invitrogen), 0.25 mg/mL geneticin; 0.4 mg/ml zeocin. The amino acid sequences encoded by the transfected cDNA constructs used to generate the CHO-human α3β4 cells are identical to the translated sequences for GenBank accession numbers NM_000743.2 and NM_000750.3, respectively.
as §2, §3, §4

[7] = molecular target: T4, human α3β4 (Homo sapiens, UniProt P30926+P32297); assay: Calcium flux inhibition, CHO-human α3β4 cells; assay type: cell-based
T4 construct: host or cells: CHO
Description: as §6, §5

[8] = SH-EP1-Human α4β2 cell membranes, [3H]nicotine 2 nM, read-out: Human α4β2 Ki
[9] = 29° C.-treated cells (HS), nicotine 1 μM
[10] = 29° C.-treated cells (HS), nicotine 1 μM, read-out: Human α4β2 Ca Flux IC50 [29C/HS]
[11] = cells maintained at 37° C. (LS), nicotine 10 μM, read-out: Human α4β2 Ca Flux IC50 [37C/LS]
[12] = cells maintained at 37° C., nicotine 10 μM
[13] = SH-SY5Y cells, nicotine 20 μM, read-out: Human Ganglion Ca Flux IC50
[14] = CHO Human α3β4 membranes, [3H]epibatidine 1 nM, read-out: Human CHO α3β4 Ki
[15] = nicotine 20 μM, read-out: Human CHO α3β4 Ca Flux IC50

SMILES	Ki [1, 8]	Ki [2]	Human α4β2 Ca Flux Imax [29C/HS] [3, 9]	IC50 [3, 10]	IC50 [4, 11]	Emax [4, 12]	Human Ganglion Ca Flux Imax ([5]; SH-SY5Y cells, nicotine 20 μM)	IC50 [5, 13]	Ki [1]	Ki [6]	IC50 [3]	IC50 [4]	Emax [4]	IC50 [7]	Human CHO α3β4 Ca Flux Imax ([7]; nicotine 20 μM)	Ki [6, 14]	IC50 [7, 15]	IC50 [5]
CNC12CCCC1(CO)C1CCC2C1 (centres unmarked)	31000 nM	89000 nM	99 % inh	370 nM	380 nM	90%	91 % inh	200 nM										
CCC12CCCC1(NC)C1CCC2C1 (centres unmarked)			100 % inh				98 % inh	20 nM	34000 nM	75000 nM	430 nM	170 nM	97%	220 nM	97 % inh			
CCCCC12CCCC1(NC)C1CCC2C1 (centres unmarked)	73000 nM		99 % inh	460 nM	140 nM		93 % inh						96%		96 % inh	74000 nM	300 nM	24 nM
CN[C@]12CCC[C@H]1[C@@H]1CC[C@H]2C1			96 % inh				95 % inh	380 nM	33000 nM		550 nM	340 nM	96%	490 nM	97 % inh			
[2H]C([2H])NC12CCCC1(C([2H])([2H])[2H])C1CCC2C1 (centres unmarked)	26000 nM				76 nM	95%	99 % inh	83 nM										
C[N+](C)(C)[C@]12CCC[C@H]1[C@@H]1CC[C@H]2C1	8600 nM				380 nM	100%	97 % inh	1800 nM								13000 nM		
C[N+](C)(C)[C@@]12CCC[C@@H]1[C@H]1CC[C@@H]2C1	6900 nM				260 nM	98%									94 % inh		940 nM	
CC[C@]12CCC[C@@]1(NC)[C@@H]1CC[C@H]2C1			100 % inh						32000 nM	53000 nM	510 nM	6900 nM	94%	120 nM	97 % inh			
CN(C)[C@]12CCC[C@H]1[C@@H]1CC[C@H]2C1	47000 nM		99 % inh	410 nM	410 nM	98%									97 % inh	16000 nM	230 nM	
CN(C)[C@@]12CCC[C@@H]1[C@H]1CC[C@@H]2C1	20000 nM		96 % inh	510 nM	500 nM	98%									96 % inh	13000 nM	190 nM	
CC[C@@]12CCC[C@]1(N(C)C)[C@H]1CC[C@@H]2C1	33000 nM				710 nM								98%		95 % inh	91000 nM	240 nM	
CC[C@]12CCC[C@@]1(N(C)C)[C@@H]1CC[C@H]2C1	64000 nM				370 nM								99%		96 % inh	70000 nM	200 nM	
